The test system of series [1] is Staphylococcus aureus ATCC 33591 (DRCC 019, MRSA). Briefly: MIC by broth microdilution, S. aureus DRCC 019 (MRSA). The following applies: Mueller Hinton Broth, overnight 37° C., strain DRCC 019 (ATCC 33591), read-out: Antimicrobial Screening (MIC) Staphylococcus aureus 019 MRSA. The class given is cell-based. How it is done: (§1) Minimum Inhibiton Concentrations (MICs) were determined by broth microdilution technique as per the guidelines prescribed om the fifth edition of Approved Standards, NCCLS document M7-A5 Vol 20-No 2, 2000 Villinova, Pa.
(§2) Initial stock solution of the test compound was prepared in DMSO. Subsequent two fold dilutions were carried out in sterile Mueller Hinton Broth (Difco) (MHB).
(§3) Frozen cultures stocks were inoculated into 50 ml sterile MHB in 250 ml Erlyn Meyer flasks.
(§4) Composition of MHB is as follows:
(§5) Flasks were incubated for 4 to 5 h at 35° C. on a rotary shaker at 150 rpm. Inoculum was prepared by diluting the culture in sterile MHB to obtain a turbidity of 0.5 McFarland standard. This corresponds to 1–2×10^8 CFU/ml. The stock was further diluted in sterile broth to obtain 1–2×10^6 CFU/ml. 50 μl of the above diluted inoculum was added from 1–10 wells. The plates were incubated overnight at 37° C.

The test system of series [2] is Staphylococcus aureus ATCC 49951 (DRCC 213, Smith S). The experiment in a line: MIC by broth microdilution, S. aureus DRCC 213 (Smith S). Format: cell-based. The following applies: ATCC49951, Mueller Hinton Broth, overnight 37° C., strain DRCC 213 (ATCC 49951), read-out: Antimicrobial Screening (MIC) Staphylococcus aureus 213 Smith S. The method, then:
as §1, §2, §3, §4, §5

In series [3] the test system is Staphylococcus aureus ATCC 29213 (DRCC 035, S). The experiment in a line: MIC by broth microdilution, S. aureus DRCC 035 (S). Format: cell-based. The following applies: ATCC29213, Mueller Hinton Broth, overnight 37° C., strain DRCC 035 (ATCC 29213), read-out: Antimicrobial Screening (MIC) Staphylococcus aureus 035 S. The method, then:
as §1, §2, §3, §4, §5

Series [4] concerns Enterococcus faecalis ATCC 29212 (DRCC 034, S). The experiment in a line: MIC by broth microdilution, Enterococcus DRCC 034 (S). Format: cell-based. The following applies: ATCC29212, Mueller Hinton Broth, overnight 37° C., strain DRCC 034 (E. faecalis ATCC 29212), read-out: Antimicrobial Screening (MIC) Enterococcus sp 034 S. How it is done:
as §1, §2, §3, §4, §5

For series [5], the system named is Enterococcus faecalis NCTC 12201 (DRCC 153, R). The experiment in a line: MIC by broth microdilution, Enterococcus DRCC 153 (R). Format: cell-based. The following applies: NCTC12201, Mueller Hinton Broth, overnight 37° C., strain DRCC 153 (E. faecalis NCTC 12201), read-out: Antimicrobial Screening (MIC) Enterococcus sp 153 R. The method, then:
as §1, §2, §3, §4, §5

In series [6] the test system is Enterococcus faecium NCTC 12202 (DRCC 154, R). Briefly: MIC by broth microdilution, Enterococcus DRCC 154 (R). The following applies: NCTC12202, Mueller Hinton Broth, overnight 37° C., strain DRCC 154 (E. faecium NCTC 12202), read-out: Antimicrobial Screening (MIC) Enterococcus sp 154 R. Format: cell-based. The method, then:
as §1, §2, §3, §4, §5

In series [7] the test system is Escherichia coli ATCC 25922 (DRCC 018, S). Briefly: MIC by broth microdilution, E coli DRCC 018 (S). The following applies: ATCC25922, Mueller Hinton Broth, overnight 37° C., strain DRCC 018 (ATCC 25922), read-out: Antimicrobial Screening (MIC) E coli 18 S. The class given is cell-based. How it is done:
as §1, §2, §3, §4, §5

≈ marks a conversion by molar mass, not a printed value.

Turning to `CC(=O)NC[C@H]1CN(c2ccc(N3CCOC3=O)c(F)c2)C(=O)O1` [Example 40], the minimal inhibitory concentration (MIC) in series [1] came out at 8 mg/L (≈ 23.7 µM); in series [2] it was 4 mg/L (≈ 11.9 µM); in series [3], 8 mg/L (≈ 23.7 µM); in series [4], 16 mg/L (≈ 47.4 µM); in series [5] it was 8 mg/L (≈ 23.7 µM); in series [6], 8 mg/L (≈ 23.7 µM). Further, in series [7], the MIC is 32 mg/L (≈ 94.9 µM).

With `CC(=O)NC[C@H]1CN(c2ccc(N3CCOC3=O)cc2)C(=O)O1` [Example 62], the MIC is 2 mg/L (≈ 6.26 µM) in series [1]; 1 mg/L (≈ 3.13 µM) in series [2]; 4 mg/L (≈ 12.5 µM) in series [3]; 8 mg/L (≈ 25.1 µM) in series [5]; 8 mg/L (≈ 25.1 µM) in series [6]; 32 mg/L (≈ 100 µM) in series [7].

Regarding `CC(=S)NC[C@H]1CN(c2cc(F)c(N3CCOC3=O)c(F)c2)C(=O)O1` [Example 76], the MIC in series [1] turned out to be 2 mg/L (≈ 5.39 µM); in series [2], 2 mg/L (≈ 5.39 µM); in series [3], 4 mg/L (≈ 10.8 µM); in series [4], 4 mg/L (≈ 10.8 µM); in series [5], 4 mg/L (≈ 10.8 µM); in series [6], 4 mg/L (≈ 10.8 µM). Moreover, the MIC in series [7] was > 32 mg/L.

`CC(=S)NC[C@H]1CN(c2cc(F)c(N3CCOC3=O)c(F)c2)C(=O)O1` [Example 77] displayed a melting point of 168 °C.

As to `CC(=S)NC[C@H]1CN(c2ccc(N3CCN(C)C3=O)c(F)c2)C(=O)O1` [Example 79], the MIC in series [1] turned out to be 2 mg/L (≈ 5.46 µM); in series [2], 2 mg/L (≈ 5.46 µM); in series [3], 4 mg/L (≈ 10.9 µM); in series [4], 4 mg/L (≈ 10.9 µM); in series [5], 8 mg/L (≈ 21.8 µM); in series [6], 8 mg/L (≈ 21.8 µM). In addition, in series [7], the MIC was 32 mg/L (≈ 87.3 µM).

`COC(=S)NC[C@H]1CN(c2ccc(N3CCOC3=O)c(F)c2)C(=O)O1` [Example 88]: the MIC in series [1] turned out to be 1 mg/L (≈ 2.71 µM); in series [2], 1 mg/L (≈ 2.71 µM); in series [3], 2 mg/L (≈ 5.41 µM); in series [4] it was 2 mg/L (≈ 5.41 µM); in series [5], 2 mg/L (≈ 5.41 µM); in series [6] it was 2 mg/L (≈ 5.41 µM). Further, the MIC in series [7] is > 32 mg/L.

Turning to `CCOC(=S)NC[C@H]1CN(c2ccc(N3CCOC3=O)c(F)c2)C(=O)O1` [Example 89], the MIC in series [1] stood at 4 mg/L (≈ 10.4 µM); in series [2], 4 mg/L (≈ 10.4 µM); in series [3], 4 mg/L (≈ 10.4 µM); in series [4] it was 8 mg/L (≈ 20.9 µM); in series [5], 8 mg/L (≈ 20.9 µM); in series [6] it was 8 mg/L (≈ 20.9 µM). Also, the MIC in series [7] was > 32 mg/L.

The compound `COC(=S)NC[C@H]1CN(c2ccc(N3CCOC3=S)c(F)c2)C(=O)O1` [Example 92] yielded a melting point of 197 °C.

In the case of `COC(=S)NC[C@H]1CN(c2cc(F)c(N3CCOC3=O)c(F)c2)C(=O)O1` [Example 99], the MIC in series [1], in series [2], in series [3], in series [4], in series [5] and in series [6] was 2 mg/L (≈ 5.16 µM) throughout. For the same compound, the MIC in series [7] is > 32 mg/L.

For `COC(=S)NC[C@H]1CN(c2ccc(N3CCOC3=O)cc2)C(=O)O1` [Example 100], the minimal inhibitory concentration (MIC) in series [1] came to 0.5 mg/L (≈ 1.42 µM); in series [2], 0.5 mg/L (≈ 1.42 µM); in series [3], 0.5 mg/L (≈ 1.42 µM); in series [4] it was 1 mg/L (≈ 2.85 µM); in series [5] it was 1 mg/L (≈ 2.85 µM); in series [6], 1 mg/L (≈ 2.85 µM). In series [7], the MIC came out at 32 mg/L (≈ 91.1 µM).

With `CC(C)OC(=S)NC[C@H]1CN(c2ccc(N3CCOC3=O)cc2)C(=O)O1` [Example 107], the MIC in series [1] is 2 mg/L (≈ 5.27 µM); in series [2], 4 mg/L (≈ 10.5 µM); in series [3], 4 mg/L (≈ 10.5 µM); in series [4], 8 mg/L (≈ 21.1 µM); in series [5] it was 4 mg/L (≈ 10.5 µM); in series [6] it was 4 mg/L (≈ 10.5 µM). For the same compound, the MIC in series [7] stood at 32 mg/L (≈ 84.3 µM).

In the case of `COC(=S)NC[C@H]1CN(c2ccc(N3CC(=O)N(C)C3)c(F)c2)C(=O)O1` [Example 110], the MIC in series [1] was 0.5 mg/L (≈ 1.31 µM); in series [2] it was 0.5 mg/L (≈ 1.31 µM); in series [3], 0.5 mg/L (≈ 1.31 µM); in series [4] it was 1 mg/L (≈ 2.61 µM); in series [5], 1 mg/L (≈ 2.61 µM); in series [6] it was 1 mg/L (≈ 2.61 µM). Besides, the MIC in series [7] worked out at 32 mg/L (≈ 83.7 µM).

Turning to `COC(=S)NC[C@H]1CN(c2ccc(N3CCN(C)C3=O)c(F)c2)C(=O)O1` [Example 113], the MIC was found to be 2 mg/L (≈ 5.23 µM) in series [1]; 4 mg/L (≈ 10.5 µM) in series [2]; 4 mg/L (≈ 10.5 µM) in series [3]; 4 mg/L (≈ 10.5 µM) in series [4]; 4 mg/L (≈ 10.5 µM) in series [5]; 8 mg/L (≈ 20.9 µM) in series [6]. Moreover, in series [7], the MIC is 32 mg/L (≈ 83.7 µM).

For `COC(=S)NC[C@H]1CN(c2ccc(N3CCN(Cc4ccccc4)C3=O)cc2)C(=O)O1` [Example 115], the melting point came to 160 °C.

In turn, `COC(=S)NC[C@H]1CN(c2ccc(N3CCN(Cc4ccccc4)C3=O)c(F)c2)C(=O)O1` [Example 116] registered a melting point of 174 °C.

For the compound `COC(=S)NC[C@H]1CN(c2ccc(N3CCN(c4ccccc4)C3=O)c(F)c2)C(=O)O1` [Example 117], the melting point stood at 195 °C.

`COC(=S)NC[C@H]1CN(c2ccc(N3CC(=O)N(Cc4ccccc4)C3)c(F)c2)C(=O)O1` [Example 123] displayed a melting point of 192 °C.

On to `COC(=S)NC[C@H]1CN(c2ccc(N3CC(=O)N(CO)C3)c(F)c2)C(=O)O1` [Example 124], for which the MIC in series [1] was determined as 0.25 mg/L (≈ 0.627 µM); in series [2], 0.25 mg/L (≈ 0.627 µM); in series [3], 0.5 mg/L (≈ 1.25 µM); in series [4], 0.5 mg/L (≈ 1.25 µM); in series [5], 0.25 mg/L (≈ 0.627 µM); in series [6], 0.5 mg/L (≈ 1.25 µM).

Consider `COC(=S)NC[C@H]1CN(c2ccc(N3CC(=S)N(C)C3)c(F)c2)C(=O)O1` [Example 125], for which the MIC in series [1] worked out at 0.25 mg/L (≈ 0.627 µM); in series [2] it was 0.25 mg/L (≈ 0.627 µM); in series [3] it was 0.5 mg/L (≈ 1.25 µM); in series [4] it was 0.5 mg/L (≈ 1.25 µM); in series [5] it was 0.25 mg/L (≈ 0.627 µM); in series [6], 0.5 mg/L (≈ 1.25 µM).

`COC(=S)NC[C@H]1CN(c2ccc(N3CC(=S)N(C)C3)c(F)c2)C(=O)O1` [Example 126] registered a melting point of 223 °C.

In the case of `COCN1CN(c2ccc(N3C[C@H](CNC(=S)OC)OC3=O)cc2F)CC1=O` [Example 127], the MIC was 0.5 mg/L (≈ 1.21 µM) in series [1]; 1 mg/L (≈ 2.42 µM) in series [2]; 1 mg/L (≈ 2.42 µM) in series [3]; 1 mg/L (≈ 2.42 µM) in series [4]; 1 mg/L (≈ 2.42 µM) in series [5]; 1 mg/L (≈ 2.42 µM) in series [6].

The record behind these values is patent US7183301B2, “Heterocyclic compounds having antibacterial activity: process for their preparation and pharmaceutical compositions containing them” (Dr. Reddy's Research Foundation, priority 2000, dated 2007).
